Laboratory results from patent US9107900B2, “Use of dronedarone for the preparation of a medicament for use in the prevention of cardiovascular hospitalization or of morality” (SANOFI, priority 2008, dated 2015).
Where a name gives a salt, the structure may show the parent alone.

Test: blood potassium level from regular blood samples in the same clinical study
Format: in vivo, human
Conditions: after the 24th month, taking into account the starting value; vs placebo; p<0.0001
Description: The potassium concentration-modulating effect is clearly documented in the study by virtue of the results of analyses of regular blood samples taken throughout the duration of the study in the context of the monitoring of vital parameters.
The variations in potassium (in mmol/l) between the first and the last administration of the medicament of the study are included in FIG. 8, in which B signifies basal level, D signifies day and M signifies month.

CCCCc1oc2ccc(NS(C)(=O)=O)cc2c1C(=O)c1ccc(OCCCN(CCCC)CCCC)cc1 [dronedarone hydrochloride, 2-n-Butyl-3-[4-(3-di-n-butylaminopropoxy)benzoyl]-5-methylsulphonamidobenzofuran]
change in blood potassium level (analysis of covariance): significant different in favour of dronedarone
